{
  "source": "ChEMBL document CHEMBL1142074",
  "about": "“In vitro activities of cloxyquin (5-chloroquinolin-8-ol) against Mycobacterium tuberculosis” (2007)",
  "type_in_all_cases": "functional",
  "key": {"[1]": {"test_system": "Mycobacterium tuberculosis", "test": "Antimycobacterial activity against Mycobacterium tuberculosis H37Ra ATCC 25177 by microplate alamar blue assay"}, "[2]": {"test_system": "Mycobacterium tuberculosis", "test": "Antimycobacterial activity against Mycobacterium tuberculosis H37Rv ATCC 27294 by microplate alamar blue assay"}, "[3]": {"test_system": "Mycobacterium tuberculosis", "test": "Antimycobacterial activity against Mycobacterium tuberculosis isolates from pulmonary tuberculosis patient by microplate alamar blue assay"}, "[4]": {"test_system": "Mycobacterium tuberculosis", "test": "Antimycobacterial activity against para-aminosalicylic acid-resistant Mycobacterium tuberculosis H37Rv ATCC 35821 by microplate alamar blue assay"}},
  "data": [
    {"smiles": "Oc1c(Br)cc(Br)c2cccnc12", "note": "[BROXYQUINOLINE]", "values": [
      {"measurement": "MIC", "setting": "[1]", "value": 6.25, "unit": "µg/mL"}
    ]},
    {"smiles": "Oc1ccc(Cl)c2cccnc12", "note": "[CLOXYQUIN]", "values": [
      {"measurement": "MIC", "setting": "[2]", "value": 0.125, "unit": "µg/mL"},
      {"measurement": "MIC50", "setting": "[3]", "value": 0.125, "unit": "µg/mL"},
      {"measurement": "MIC90", "setting": "[3]", "value": 0.25, "unit": "µg/mL"},
      {"measurement": "MIC", "setting": "[4]", "value": 0.125, "unit": "µg/mL"},
      {"measurement": "MIC", "setting": "[1]", "value": 0.125, "unit": "µg/mL"}
    ]},
    {"smiles": "Oc1c(I)cc(Cl)c2cccnc12", "note": "[CLIOQUINOL]", "values": [
      {"measurement": "MIC", "setting": "[1]", "value": 6.25, "unit": "µg/mL"}
    ]},
    {"smiles": "Cc1ccc2c(Cl)cc(Cl)c(O)c2n1", "note": "[CHLORQUINALDOL]", "values": [
      {"measurement": "MIC", "setting": "[1]", "value": 0.38, "unit": "µg/mL"}
    ]},
    {"smiles": "Oc1cccc2cccnc12", "note": "[OXYQUINOLINE]", "values": [
      {"measurement": "MIC", "setting": "[1]", "value": 0.125, "unit": "µg/mL"}
    ]}
  ]
}
